By pIC50 is commonly meant the negative decadic logarithm of the IC50, by convention in mol/L. What is called clearance is the rate of elimination divided by the concentration. Read a high clearance as efficient removal. A word on the solubility: it is the dissolved amount per volume that the medium holds. Lower therefore signals little dissolved substance. Usually half-life stands for how long it takes for the measured level to halve.

Here are results for 44 molecules from ChEMBL document CHEMBL1138134, “Phthalazinones 2: Optimisation and synthesis of novel potent inhibitors of poly(ADP-ribose)polymerase” (Bioorg Med Chem Lett, 2006).

The target of data set [1] is T1, Poly [ADP-ribose] polymerase 1 (Homo sapiens, UniProt P09874). Particulars: HeLa.
Description: Ratio of inhibition of HeLa cell proliferation by MMS alone against MMS with PARP inhibitors
For data set [2], the target named is T1, Poly [ADP-ribose] polymerase 1. The data set is described as follows: Inhibitory activity against PARP1.
For another data set, the species on record is Mus musculus. In words: Intrinsic clearance in mouse hepatic microsomes. The data set is classed as ADME, Liver, Microsome.
Data set [3] is described as follows: Clearance in rat at 10 mg/kg, iv. It is filed as ADME, organism-based. Details: dose 10 mg/kg, route intravenous. The note with it: in vivo.
Data set [4] in a line: Volume of distribution in rat at 10 mg/kg, iv. It is filed as ADME, organism-based. Further details: dose 10 mg/kg, route intravenous. Particulars: in vivo, read-out: Vdss.
Another data set concerns RKO. In words: Activity against wild type cells. The data set is classed as functional, Homo sapiens.
Data set [5] is described as follows: Aqueous solubility at pH 7.4. It is filed as physicochemical.
The test system of a further data set is CAPAN-1. The data set is described as follows: Activity against BRCA2-deficient cells. It is filed as functional, Homo sapiens.
Data set [6] can be described thus: Half life in rat at 10 mg/kg, iv. It is filed as ADME, organism-based. Details: dose 10 mg/kg, route intravenous. The note with it: in vivo.

pIC50: −log10 of the molar value. ≈ marks a conversion by molar mass, not a printed value.

T1 sequence (P09874 whole entry): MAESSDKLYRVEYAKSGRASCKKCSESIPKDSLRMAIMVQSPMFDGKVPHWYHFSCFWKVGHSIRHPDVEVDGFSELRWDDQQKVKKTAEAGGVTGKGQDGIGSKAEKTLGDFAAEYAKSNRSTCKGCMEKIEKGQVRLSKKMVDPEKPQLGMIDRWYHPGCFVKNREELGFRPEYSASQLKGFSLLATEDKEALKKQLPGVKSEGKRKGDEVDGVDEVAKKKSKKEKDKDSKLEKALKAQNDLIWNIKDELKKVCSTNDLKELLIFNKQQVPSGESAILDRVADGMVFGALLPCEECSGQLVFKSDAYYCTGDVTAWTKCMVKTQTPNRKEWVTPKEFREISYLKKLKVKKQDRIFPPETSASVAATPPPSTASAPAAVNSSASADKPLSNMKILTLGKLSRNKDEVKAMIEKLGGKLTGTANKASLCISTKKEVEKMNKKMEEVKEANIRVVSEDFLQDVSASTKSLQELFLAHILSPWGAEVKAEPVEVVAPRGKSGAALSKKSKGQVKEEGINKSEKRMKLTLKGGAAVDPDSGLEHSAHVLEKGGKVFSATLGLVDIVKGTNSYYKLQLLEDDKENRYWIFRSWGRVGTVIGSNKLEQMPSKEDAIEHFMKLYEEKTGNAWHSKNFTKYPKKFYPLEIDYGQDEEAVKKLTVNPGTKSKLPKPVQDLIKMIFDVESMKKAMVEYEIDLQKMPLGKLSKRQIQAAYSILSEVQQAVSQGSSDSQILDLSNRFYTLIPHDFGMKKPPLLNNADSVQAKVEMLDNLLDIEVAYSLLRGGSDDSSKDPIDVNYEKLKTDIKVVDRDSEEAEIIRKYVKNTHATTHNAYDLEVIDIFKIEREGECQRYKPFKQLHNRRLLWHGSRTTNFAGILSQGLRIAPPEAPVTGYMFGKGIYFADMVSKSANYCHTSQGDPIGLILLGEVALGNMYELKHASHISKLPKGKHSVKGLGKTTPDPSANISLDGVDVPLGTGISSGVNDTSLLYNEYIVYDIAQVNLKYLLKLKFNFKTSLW

Regarding `O=C(c1cccc(Cc2n[nH]c(=O)c3ccccc23)c1)N1CCNCC1`, the PF50 in data set [1] was determined as 3.7.
On the same count and under the same terms, for `COc1cc2c(cc1OC)CN(C(=O)C1CCN(C(=O)c3cccc(Cc4nnc(O)c5ccccc45)c3)CC1)CC2` the value was 4.1.
Molecule `CCCN1CCCN(C(=O)c2cccc(Cc3n[nH]c(=O)c4ccccc34)c2)CC1` had a negative logarithm of the IC50 (pIC50) in data set [2] of 8.00.
On the same count and under the same terms, for `CCOC(=O)C1CCN(C(=O)c2cccc(Cc3n[nH]c(=O)c4ccccc34)c2)CC1` the value was 7.82.
Turning to `CC(C)CNC(=O)C1CCN(C(=O)c2cccc(Cc3nnc(O)c4ccccc34)c2)CC1`, in data set [2], the pIC50 is 7.80. The molecule also came in with a PF50 in data set [1] of 2.
In [2], `O=C(NCCc1cccs1)C1CCN(C(=O)c2cccc(Cc3nnc(O)c4ccccc34)c2)CC1` had a pIC50 of 8.10. In data set [1], this molecule displayed a PF50 of 2.8.
As for `O=C(c1cccc(Cc2nnc(O)c3ccccc23)c1)N1CCCN(S(=O)(=O)c2ccc(-c3ccccc3)cc2)CC1`, the PF50 in [1] came to 3.2.
On the same count and under the same terms, for `COc1ccc(NC(=O)N2CCCN(C(=O)c3cccc(Cc4nnc(O)c5ccccc45)c3)CC2)cc1` the value was 2.2.
Regarding `O=C(c1cccc(Cc2n[nH]c(=O)c3ccccc23)c1)N1CCCNCC1`, the pIC50 in [2] was 8.05.
`CN1CCCN(C(=O)c2cccc(Cc3nnc(O)c4ccccc34)c2)CC1`: the pIC50 in [2] is 7.64. This molecule had a PF50 in data set [1] of 1.8.
As for `O=C(c1cccc(Cc2n[nH]c(=O)c3ccccc23)c1)N1CCOCC1`, the pIC50 in data set [2] is 7.40.
On the same count and under the same terms, for `CCC(C)CN(C)C(=O)C1CCN(C(=O)c2cccc(Cc3n[nH]c(=O)c4ccccc34)c2)CC1` (stereo unspecified) the value was 8.05; for `CC1CCN(C(=O)C2CCN(C(=O)c3cccc(Cc4n[nH]c(=O)c5ccccc45)c3)CC2)CC1`, 8.10.
`O=C(c1cccc(Cc2nnc(O)c3ccccc23)c1)N1CCCNCC1` had a PF50 in [1] of 2.4.
Regarding `O=C(c1cccc(Cc2n[nH]c(=O)c3ccccc23)c1)N1CCCN(CC2CC2)CC1`, the negative-log IC50 (pIC50) in [2] was 7.85.
As to `O=C(c1cccc(Cc2nnc(O)c3ccccc23)c1)N1CCC(C(=O)N2CCCCC2)CC1`, the pIC50 in data set [2] was 7.82. This molecule showed a PF50 in [1] of 3.9.
Consider `Cc1noc(C)c1S(=O)(=O)N1CCCN(C(=O)c2cccc(Cc3n[nH]c(=O)c4ccccc34)c2)CC1`, for which, in data set [2], the pIC50 was 7.92.
`O=C(NC1CCCC1)C1CCN(C(=O)c2cccc(Cc3nnc(O)c4ccccc34)c2)CC1` gave a negative-log IC50 (pIC50) in data set [2] of 7.82. For the same molecule, the PF50 in data set [1] is 2.5.
With `CN(Cc1ccccc1)C(=O)C1CCN(C(=O)c2cccc(Cc3nnc(O)c4ccccc34)c2)CC1`, in data set [2], the pIC50 is 8.05. The molecule further returned a PF50 in data set [1] of 2.1.
In data set [2], `COc1cc2c(cc1OC)CN(C(=O)C1CCN(C(=O)c3cccc(Cc4n[nH]c(=O)c5ccccc45)c3)CC1)CC2` had a negative-log IC50 (pIC50) of 7.80.
The molecule `CCNC(=O)c1cccc(Cc2n[nH]c(=O)c3ccccc23)c1` showed a CL in the data set filed under Mus musculus of less than 1 mL/min/g. The molecule further had a PF50 in [1] of 2.1.
As for `O=C(c1cccc(Cc2nnc(O)c3ccccc23)c1)N1CCCN(S(=O)(=O)c2cccc(C(F)(F)F)c2)CC1`, in [1], the PF50 was determined as 2.1.
On the same count and under the same terms, for `Cc1noc(C)c1S(=O)(=O)N1CCCN(C(=O)c2cccc(Cc3nnc(O)c4ccccc34)c2)CC1` the value was 2.1.
Regarding `CN(C)CCN(C)C(=O)c1cccc(Cc2nnc(O)c3ccccc23)c1`, the negative-log IC50 (pIC50) in data set [2] is 7.34. In data set [1], this molecule showed a PF50 of 2.2.
`O=C(c1cc(Cc2nnc(O)c3ccccc23)ccc1F)N1CCCN(C2CCCCC2)CC1` came in with a PF50 in [1] of 6.3.
As to `COc1cc(C(=O)N2CCCN(C(=O)c3cccc(Cc4n[nH]c(=O)c5ccccc45)c3)CC2)cc(Cl)n1`, in data set [2], the negative-log IC50 (pIC50) was 8.05.
As to `COc1cc(C(=O)N2CCCN(C(=O)c3cccc(Cc4nnc(O)c5ccccc45)c3)CC2)cc(Cl)n1`, the PF50 in [1] was 2.5.
For the molecule `O=C(c1cc(Cc2n[nH]c(=O)c3ccccc23)ccc1F)N1CCCNCC1`, the clearance in data set [3] turned out to be 54 mL/min/kg. Also, the Vd in data set [4] worked out at 2.1 L/kg. The pIC50 in data set [2] is 8.15. The SF50 in the data set with RKO is 2 µM; in the data set with CAPAN-1, 15 nM. This molecule showed a PF50 in data set [1] of 12.6. In addition, the solubility in data set [5] is 5100 µg/mL (≈ 13.4 mM). The molecule also showed a half-life in [6] of 1 h.
In turn, `CCCN1CCCN(C(=O)c2cc(Cc3nnc(O)c4ccccc34)ccc2F)CC1` showed a negative logarithm of the IC50 (pIC50) in data set [2] of 8.30. This molecule displayed a PF50 in data set [1] of 7.
`CCC(C)CN(C)C(=O)C1CCN(C(=O)c2cccc(Cc3nnc(O)c4ccccc34)c2)CC1` (stereo unspecified) returned a PF50 in data set [1] of 2.6.
On the same count and under the same terms, for `CCN1CCCN(C(=O)c2cc(Cc3nnc(O)c4ccccc34)ccc2F)CC1` the value was 6.7.
On the same count and under the same terms, for `O=C(c1cccc(Cc2nnc(O)c3ccccc23)c1)N1CCCN(CC2CC2)CC1` the value was 3.1.
As to `O=C(c1cc(Cc2n[nH]c(=O)c3ccccc23)ccc1F)N1CCCN(CC2CC2)CC1`, the negative logarithm of the IC50 (pIC50) in [2] was 8.30.
`O=C(c1cccc(Cc2nnc(O)c3ccccc23)c1)N1CCc2ccccc2C1`: in data set [2], the negative logarithm of the IC50 (pIC50) was 8.10. For the same molecule, the PF50 in data set [1] amounted to 3.4.
Taken in the same sequence, the figures for `CN1CCCN(C(=O)c2cc(Cc3nnc(O)c4ccccc34)ccc2F)CC1` were 8.05 and 5.5.
The molecule `O=C(c1cccc(Cc2nnc(O)c3ccccc23)c1)N1CCOCC1` displayed a PF50 in data set [1] of 1.2.
Regarding `COc1cccc(CCC(=O)N2CCCN(C(=O)c3cccc(Cc4nnc(O)c5ccccc45)c3)CC2)c1`, in data set [2], the pIC50 is 8.10. Also, the PF50 in [1] came to 2.5.
Taken in the same sequence, the figures for `O=C(c1cccc(Cc2nnc(O)c3ccccc23)c1)N1CCCN(C2CCCCC2)CC1` were 8.22 and 6.6.
In data set [1], `CCOC(=O)C1CCN(C(=O)c2cccc(Cc3nnc(O)c4ccccc34)c2)CC1` yielded a PF50 of 2.1.
The same measure, in the same setting: for `CCCN1CCCN(C(=O)c2cccc(Cc3nnc(O)c4ccccc34)c2)CC1` the value was 2.5.
The same measure, in the same setting: for `O=C(c1cc(Cc2nnc(O)c3ccccc23)ccc1F)N1CCCN(CC2CC2)CC1` the value was 6.7.
Molecule `CCC(=O)Nc1cccc(Cc2n[nH]c(=O)c3ccccc23)c1` showed a CL in the data set filed under Mus musculus of 12 mL/min/g. The molecule further returned a PF50 in [1] of 2.3.
`CC1CCN(C(=O)C2CCN(C(=O)c3cccc(Cc4nnc(O)c5ccccc45)c3)CC2)CC1` had a PF50 in data set [1] of 4.4.
As for `CCN1CCCN(C(=O)c2cccc(Cc3nnc(O)c4ccccc34)c2)CC1`, the negative-log IC50 (pIC50) in [2] is 7.82. Also, the PF50 in data set [1] was found to be 2.6.
